Source: paper PMC8199500, “Novel Bis- and Mono-Pyrrolo[2,3-d]pyrimidine and Purine Derivatives: Synthesis, Computational Analysis and Antiproliferative Evaluation” (Molecules, 2021)
Read-outs that look alike come from different tables or passages of the source.

Assays:
[1] = test system: lung adenocarcinoma (A549) cells; assay: MTT proliferation assay, A549 cells; format: cell-based, human
Procedure: (§1) Human carcinoma cell lines A549 (lung carcinoma), HeLa (cervical carcinoma), SW620 (colorectal adenocarcinoma, metastatic) and CFPAC-1 (pancreatic cancer, derived from metastatic: liver), and normal human foreskin (HFF-1) fibroblasts were obtained from the American Type Culture Collection (ATCC, Manassas, VA, USA). Cells were cultured in humidified atmosphere at 37 °C with 5% CO2. As growth medium, Dulbecco′s modified Eagle medium (DMEM) was used with the addition of fetal bovine serum (10%), L-glutamine (2 mM) and antibiotics: streptomycin ([…]) and penicillin (100 U/mL).
(§2) Cells were seeded onto 96-well microtiter plates at a seeding density of 3000 cells/well for carcinoma cell lines, and 5000 cells/well for normal human fibroblasts. The next day, cells were treated with test agents in five different concentrations (0.01–100 µM) and further incubated for 72 h. […] Following 72 h incubation, the MTT assay was performed and measured absorbances were transformed into percentage of cell growth as described previously. Results were obtained from three independent experiments. IC50 values were calculated using linear regression analysis and results were statistically analyzed by ANOVA, Tukey post-hoc test (p < 0.05).

[2] = test system: cervical carcinoma (HeLa) cells; assay: MTT proliferation assay, HeLa cells; format: cell-based, human; conditions: 72 h incubation
Procedure: as §1, §2

[3] = test system: ductal pancreatic adenocarcinoma (CFPAC-1) cells; assay: MTT proliferation assay, CFPAC-1 cells; format: cell-based, human
Procedure: as §1, §2

[4] = test system: metastatic colorectal adenocarcinoma (SW620) cells; assay: MTT proliferation assay, SW620 cells; format: cell-based, human
Procedure: as §1, §2

[5] = test system: normal human foreskin fibroblasts (HFF-1); assay: MTT proliferation assay, normal fibroblasts HFF-1; format: cell-based; conditions: 72 h incubation
Procedure: as §1, §2

[6] = test system: CFPAC-1 cells; assay: Annexin V assay for apoptosis detection; format: cell-based, human; conditions: for viability at 3.95 µM / viability at 1.58 µM: Homo sapiens, CFPAC-1, read-out: viable cells (Ann−/PI−)
Procedure: Cells were seeded into 8-well chambers (Lab-tek II Chamber Slides, Thermo Fisher Scientific, Waltham, MA, USA) in a concentration of 2 × 10^4 cells per well and treated with 2 × IC50 and 5 × IC50 concentrations of selected compounds for 48 and 72 h. Staining of the cells was performed by Annexin-V-FITC Staining kit (Santa Cruz Biotechnology, Dallas, TX, USA) according to the manufacturer′s instructions. Cells were visualised by fluorescent microscope (Olympus, Tokyo, Japan) at magnification of 40×.

[7] = test system: human tumor cell lines (A549, HeLa, CFPAC-1, SW620); assay: MTT proliferation assay, all evaluated tumor cell lines; format: cell-based; conditions: read-out: antiproliferative activity (IC50) over the evaluated tumor cell lines
Procedure: as §1, §2

[8] = Homo sapiens, A549, 72 h incubation
[9] = Homo sapiens, CFPAC-1, 72 h incubation
[10] = Homo sapiens, SW-620, 72 h incubation
[11] = 48 h treatment, 1.85 µM (2 × IC50)
[12] = 48 h treatment, 3.95 µM (5 × IC50)
[13] = 72 h treatment, 1.85 µM (2 × IC50)
[14] = 72 h treatment, 3.95 µM (5 × IC50)

C#CCOc1ccc(-c2ccc(OCc3cn(CCn4ccc5c(Cl)ncnc54)nn3)cc2)cc1 [5f, 4-chloro-7-{2-[4-(((4′-(prop-2-yn-1-yloxy)-[1,1′-biphenyl]-4-yl)oxy)methyl)-1H-1,2,3-triazol-1-yl]ethyl}-7H-pyrrolo[2,3-d]pyrimidine]
IC50 [1, 8]: 6.9 ± 1.1 µM | IC50 ([2]; Homo sapiens, HeLa): 0.98 ± 0.44 µM | IC50 [3, 9]: 0.79 ± 0.03 µM | IC50 [4, 10]: 8 ± 1.8 µM | IC50 [5]: 0.62 µM | mode of cell death in CFPAC-1 cells ([6]; 48 and 72 h, 2 × IC50 and 5 × IC50): induces apoptosis and primary necrosis in CFPAC-1 cells in a concentration- and time-dependent manner | early apoptotic cells (Ann+) [6, 11]: 11.76 ± 3.58% | late apoptotic/primary necrotic cells (Ann+/PI+) [6, 11]: 5.88 ± 1.44% | secondary necrotic cells (PI+) [6, 11]: 2.72 ± 0.56% | early apoptotic cells (Ann+) [6, 12]: 21.21 ± 1.35% | late apoptotic/primary necrotic cells (Ann+/PI+) [6, 12]: 6.56 ± 0.24% | secondary necrotic cells (PI+) [6, 12]: 4.05 ± 1.22% | decrease in cell viability vs control ([6]; 48 h treatment, 5 × IC50): 28.4% | increase in the percentage of cells in early apoptosis vs control ([6]; 48 h treatment, 5 × IC50): 21.21% | early apoptotic cells (Ann+) [6, 13]: 30.36 ± 1.49% | late apoptotic/primary necrotic cells (Ann+/PI+) [6, 13]: 10.71 ± 4.89% | secondary necrotic cells (PI+) [6, 13]: 2.68 ± 0.37% | early apoptotic cells (Ann+) [6, 14]: 39.63 ± 8.54% | late apoptotic/primary necrotic cells (Ann+/PI+) [6, 14]: 26.14 ± 2.57% | secondary necrotic cells (PI+) [6, 14]: 6.3 ± 2.45% | increase in early apoptotic cells vs control ([6]; 72 h treatment, 2 × IC50): 24.08% | increase in early apoptotic cells vs control ([6]; 72 h treatment, 5 × IC50): 33.35% | rise in late apoptotic/primary necrotic cells vs control ([6]; 72 h treatment, 5 × IC50): 26.14% | viability at 3.95 µM [6, 12]: 68.2 ± 0.94% | viability at 1.58 µM ([6]; 48 h treatment): 79.6 ± 2.57% | viability at 3.95 µM [6, 14]: 27.9 ± 3.23% | viability at 1.58 µM ([6]; 72 h treatment): 56.2 ± 6.56%

c1nc(N2CCCCC2)c2ccn(CCn3cc(CCCc4cn(CCn5ccc6c(N7CCCCC7)ncnc65)nn4)nn3)c2n1 [6c, 1,3-Bis{1-[2-(4-(piperidin-1-yl)-7H-pyrrolo[2,3-d]pyrimidin-7-yl)ethyl]-1H-1,2,3-triazol-4-yl}propane]
IC50 [1, 8]: 59.3 ± 4.9 µM | IC50 ([2]; Homo sapiens, HeLa): 33.7 ± 8.9 µM | IC50 [3, 9]: 48.7 ± 1.5 µM | IC50 [4, 10]: 65.2 ± 4.8 µM | IC50 ([7]; Homo sapiens): 28.2 to 65.2 µM | melting point: 145 to 147 °C

c1nc(N2CCCC2)c2ccn(CCn3cc(COc4ccc(OCc5cn(CCn6ccc7c(N8CCCC8)ncnc76)nn5)cc4)nn3)c2n1 [7a, 1,4-Bis{[1-(2-(4-(pyrrolidin-1-yl)-7H-pyrrolo[2,3-d]pyrimidin-7-yl)ethyl)-1H-1,2,3-triazol-4-yl]methoxy}benzene]
IC50 [1, 8]: 49.3 ± 6.4 µM | IC50 ([2]; Homo sapiens, HeLa): 6.4 ± 0.35 µM | IC50 [3, 9]: 25.8 ± 0.98 µM | IC50 [4, 10]: 78 ± 2.1 µM | IC50 [5]: 0.81 µM | melting point: 193 to 195 °C

C#CCOc1ccc(-c2ccc(OCc3cn(CCn4cnc5c(N6CCCCC6)ncnc54)nn3)cc2)cc1 [9f, 6-(piperidin-1-yl)-9-{2-[4-(((4′-(prop-2-yn-1-yloxy)-[1,1′-biphenyl]-4-yl)oxy)methyl)-1H-1,2,3-triazol-1-yl]ethyl}-9H-purine]
IC50 [1, 8]: 9.3 ± 0.1 µM | IC50 ([2]; Homo sapiens, HeLa): 3.9 ± 0.69 µM | IC50 [3, 9]: 2.9 ± 1 µM | IC50 [4, 10]: 23.2 ± 3.2 µM | IC50 [5]: 4.3 µM | melting point: 221 to 225 °C

{1-[2-(4-(Piperidin-1-yl)-7H-pyrrolo[2,3-d]pyrimidin-7-yl)ethyl]-1H-1,2,3-triazol-4-yl}methyl ether [6d]
IC50 ([1]; 72 h incubation): 51.9 ± 3 µM | IC50 [2]: 28.2 ± 9 µM | IC50 ([3]; 72 h incubation): 37.9 ± 3.7 µM | IC50 ([4]; 72 h incubation): 45.5 ± 3.3 µM | IC50 [7]: 28.2 to 65.2 µM
